# In the supplement of paper PMC10307832:
# Legend:
# Assay in all cases: relative viability (nuclei count vs DMSO), 5 days (fraction); higher = more cells survive
# [1] = compound: CN(C)C(=N)NC(=N)N [Metformin] + Cc1nc(NC(=O)N2CCC[C@H]2C(N)=O)sc1-c1ccnc(C(C)(C)C(F)(F)F)c1 [Alpelisib] (partner 2 µM)
# Method in brief: (§1)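 Each reported value is a median over duplicate plates. It expresses relative viability: treated-well nuclei count divided by vehicle-well nuclei count. Lung cancer cell lines in 1536-well plates were dosed by pin tool a day after seeding, alone with one drug or with a fixed anchor-drug dose plus five library-drug doses (not always all listed) in √10 steps, and nuclei were counted after 5 days.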
# [2] = compound: CN(C)C(=N)NC(=N)N [Metformin] + Nc1ncn([C@H]2C[C@H](O)[C@@H](CO)O2)c(=O)n1 [Decitabine] (partner 2 µM)
# Method in brief: as §1
# [3] = compound: CN(C)C(=N)NC(=N)N [Metformin] + COc1cc2c(Oc3ccc(NC(=O)C4(C(=O)Nc5ccc(F)cc5)CC4)cc3F)ccnc2cc1OCCCN1CCOCC1 [Foretinib] (partner 0.25 µM)
# Method in brief: as §1
# [4] = compound: N#CC1(c2ccc(NC(=O)c3cccnc3NCc3ccncc3)cc2)CCCC1 [Apatinib] + O=C(c1cc(Cc2n[nH]c(=O)c3ccccc23)ccc1F)N1CCN(C(=O)C2CC2)CC1 [Olaparib] (partner 8 µM)
# Method in brief: as §1
cell line,measurement,setting,value
NCI-H460,relative viability,[1]; first compound 31.62 µM,0.471
same,relative viability,[1]; first compound 100 µM,0.534
same,relative viability,[1]; first compound 316.23 µM,0.502
same,relative viability,[1]; first compound 1000 µM,0.471
same,relative viability,[2]; first compound 31.62 µM,0.444
same,relative viability,[2]; first compound 100 µM,0.493
same,relative viability,[2]; first compound 316.23 µM,0.412
same,relative viability,[2]; first compound 1000 µM,0.469
same,relative viability,[3]; first compound 10 µM,0.949
same,relative viability,[3]; first compound 31.62 µM,0.998
same,relative viability,[3]; first compound 100 µM,0.961
same,relative viability,[3]; first compound 316.23 µM,1.02
same,relative viability,[3]; first compound 1000 µM,1.03
same,relative viability,[4]; first compound 0.08 µM,0.407
same,relative viability,[4]; first compound 0.253 µM,0.444
same,relative viability,[4]; first compound 0.8 µM,0.344
same,relative viability,[4]; first compound 2.53 µM,0.323
same,relative viability,[4]; first compound 8 µM,0.237
